According to patent US20140179609A1, “Whey protein hydrolysate containing tryptophan peptide consisting of alpha lactalbumin and the use thereof” (Technische Universität Dresden, priority 2008, published 2014):
Where a SMILES comes first, the peptide text is derived from it.

How the values were obtained:
ACE = molecular target: T1, ACE (Oryctolagus cuniculus, UniProt P12822); experiment: ACE activity test (substrate HHL, hippuric acid quantified by RP HPLC); format: biochemical, rabbit; conditions: for IC50: dipeptides from Bachem, test as in Example 2, read-out: IC50 [μM] ACE-inhibiting activity; for ACE inhibiting action (in words): samples heat-treated at 100° C. for 10 minutes
T1 construct: The employed ACE is the rabbit lung enzyme obtained from Sigma-Aldrich; purchased Sigma-Aldrich; host or cells: rabbit lung (tissue-derived enzyme)
T1 sequence (P12822 34-1310): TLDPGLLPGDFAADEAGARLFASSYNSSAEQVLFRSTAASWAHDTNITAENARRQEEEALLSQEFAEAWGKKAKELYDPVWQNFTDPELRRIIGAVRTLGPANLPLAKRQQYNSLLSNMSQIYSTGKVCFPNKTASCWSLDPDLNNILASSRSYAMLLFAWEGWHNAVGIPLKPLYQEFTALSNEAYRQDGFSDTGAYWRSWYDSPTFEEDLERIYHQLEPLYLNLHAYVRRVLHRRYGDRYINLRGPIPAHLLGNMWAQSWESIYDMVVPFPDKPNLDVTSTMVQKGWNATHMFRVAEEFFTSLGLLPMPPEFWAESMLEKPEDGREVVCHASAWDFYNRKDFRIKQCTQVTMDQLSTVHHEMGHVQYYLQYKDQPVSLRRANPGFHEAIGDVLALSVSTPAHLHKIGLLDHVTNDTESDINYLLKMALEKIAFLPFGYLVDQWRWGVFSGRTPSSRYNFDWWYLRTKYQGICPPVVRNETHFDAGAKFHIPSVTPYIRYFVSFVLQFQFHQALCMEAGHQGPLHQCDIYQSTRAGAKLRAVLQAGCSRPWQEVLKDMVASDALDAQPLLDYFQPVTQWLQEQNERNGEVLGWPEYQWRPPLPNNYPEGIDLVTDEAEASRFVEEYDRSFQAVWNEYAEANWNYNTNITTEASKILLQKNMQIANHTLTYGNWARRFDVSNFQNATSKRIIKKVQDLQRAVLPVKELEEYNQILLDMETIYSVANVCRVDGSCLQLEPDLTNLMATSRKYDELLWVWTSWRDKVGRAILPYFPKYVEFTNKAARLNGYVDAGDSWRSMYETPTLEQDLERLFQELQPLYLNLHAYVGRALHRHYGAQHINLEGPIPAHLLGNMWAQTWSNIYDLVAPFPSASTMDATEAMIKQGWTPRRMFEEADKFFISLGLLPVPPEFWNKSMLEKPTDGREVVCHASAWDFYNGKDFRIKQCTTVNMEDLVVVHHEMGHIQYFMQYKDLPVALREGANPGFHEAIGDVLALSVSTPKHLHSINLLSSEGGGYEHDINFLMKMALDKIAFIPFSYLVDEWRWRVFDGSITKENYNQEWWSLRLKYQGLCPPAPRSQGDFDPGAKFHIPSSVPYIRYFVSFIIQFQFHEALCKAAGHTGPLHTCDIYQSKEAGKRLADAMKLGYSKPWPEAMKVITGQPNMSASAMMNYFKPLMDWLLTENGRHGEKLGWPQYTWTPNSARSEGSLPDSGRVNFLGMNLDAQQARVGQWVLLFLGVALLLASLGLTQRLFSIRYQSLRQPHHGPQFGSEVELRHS
Protocol: The determination of the ACE activity of the protein hydrolysates was carried out similar to a test disclosed by Cushman and Cheung in […] (Cushman, D. W. and Cheung, H.-S. Spectrophotometric Assay and Properties of Angiotensin-Converting Enzyme of Rabbit Lung, Biochemical Pharmacology, 1971, 20, 1637-1648). However, several modifications were carried out. The employed ACE is the rabbit lung enzyme obtained from Sigma-Aldrich. As a substrate N-benzoyl-glycyl-L-histidyl-L-leucin (HHL) was used which is considered to be analog to the natural substrate angiotensin I. ACE catalyzes the hydrolysis to L-histidyl-L-leucin (HL) and N-benzoyl-glycin (hippuric acid):
Since hippuric acid is UV-active (λmax=228 nm), it is possible, based on its contents determined by RP HPLC, to define the conversion rate and thus the enzyme activity. By means of a concentration series of the respective inhibitor solution, the inhibitor concentration can be determined that is required for lowering the ACE activity by one half (IC50).
In each series of measurements two enzyme blind values were carried along in which, in place of the sample solution, the same volume of double distilled water had been added. The blind value corresponds to 100% ACE activity. Calculation of the IC50 values was done by the software program SigmaPlot 5.0.
In addition to the samples that had been incubated for different lengths of time, also a blind value sample was analyzed that contained all employed enzymes and the whey protein powder in the same concentration as the hydrolysis samples. However, after addition of all substances, the enzymatic action was inactivated immediately by 10-minute incubation at 100° C. Also, possible effects by individual compounds on ACE were tested. For this purpose, the enzymes were inactivated and individually tested with respect to possible ACE inhibiting action. The same procedure was carried out with the whey protein powder. Whey protein powder that was not heat-treated was also tested with respect to its inhibiting action. For the determination of the IC50 value of the hydrolysis samples several concentrations were used in the ACE activity test. A protein concentration of 1000 mg protein/I was used as the basis. This parent solution was diluted 1:2, 1:5, 1:10, 1:20, 1:50, 1:100 and all solutions were tested with respect to their ACE inhibiting effect. Evaluation was also done with SigmaPlot 5.0.
In Table 12 the parameters measured by RP HPLC and LC-ESI-TOF-MS for the dipeptides according to the invention are listed. The Table contains also the IC50 values that were obtained for the dipeptides. […]

proteases = experiment: Stability of the dipeptides during enzymatic hydrolysis of whey protein (detection by GPC / LC-ESI-TOF-MS); conditions: hydrolysis with trypsin, Alcalase, Flavourzyme; found by GPC in all hydrolysates after three hours
Protocol: The whey protein Milei60 was hydrolyzed enzymatically by proteolytically acting enzymes, i.e., trypsin obtained from porcine pancreas (EC 3.4.21.4) as well as two further proteases, i.e., Alcalase® (Bacillus licheniformis) and Flavourzyme (Aspergillus oryzae). The following Table illustrates how hydrolysis is carried out.
The release of dipeptides Trp-Leu and Ile-Trp according to the invention during the course of hydrolysis was analyzed by GPC and LC-ESI-TOF-MS (liquid chromatography/electrospray ionization time of flight mass spectrometry).
In GPC the identification of the dipeptides was carried out by comparison with peaks of the standard peptides that were carried along.
The strongly ACE-inhibiting peptide Ile-Trp was detected unequivocally in the hydrolysates after a hydrolysis duration of three hours. Therefore, it appears to be accessible for the proteases only after a certain time has lapsed; this is true also for Trp-Leu.

[1] = tested on: spontaneously hypertensive rats; experiment: Feeding tests on spontaneously hypertensive rats; format: in vivo, rat
Source text: Administered was a preparation that contained the peptides according to the invention (PP), feed with intact whey protein (MP) as well as, as a control, a rat feed with captopril, a known ACE inhibiting agent as well as a placebo.
The basic importance of whey protein hydrolysates containing the tryptophan-containing peptides of the present invention for affecting the arterial blood pressure was objectified in animal tests on spontaneously hypertensive rats (FIG. 4). Here, the whey protein hydrolysate in comparison to a control diet caused a significant lowering of systolic blood pressure by 21±6 mm Hg after 7 weeks. Feeding captopril (ACE inhibitor of the first generation) lowered over the same time period the blood pressure by 28±7 mm Hg.
This implies comprehensive heart-protective and vessel-protective effects caused by the whey protein hydrolysate.

| Molecule | IC50 (ACE) [µM] | stability with respect to further digestion to the amino acids (proteases) | ACE inhibiting action (in words) (ACE) | other results |
| --- | --- | --- | --- | --- |
| CC(C)C[C@H](NC(=O)[C@@H](N)Cc1c[nH]c2ccccc12)C(=O)O [Trp-Leu] (H-Trp-Leu-OH; N-terminus and C-terminus assumed) | 10 | stable with respect to further digestion to the amino acids |  |  |
| C[C@H](CS)C(=O)N1CCC[C@H]1C(=O)O [captopril] |  |  |  | lowering of systolic blood pressure ([1]; after 7 weeks, in comparison to a control diet): 28±7 mm Hg; reduced heart mass ([1]; in comparison to controls): 16% |
| CC[C@H](C)[C@H](N)C(=O)N[C@@H](Cc1c[nH]c2ccccc12)C(=O)O [Ile-Trp] | 0.7 | stable with respect to further digestion to the amino acids |  |  |
| trypsin: trypsin obtained from porcine pancreas (EC 3.4.21.4), heat-inactivated hydrolysis enzyme (protein, UniProt P00761 9-231, looked up) Trypsin: IVGGYTCAANSIPYQVSLNSGSHFCGGSLINSQWVVSAAHCYKSRIQVRLGEHNIDVLEGNEQFINAAKIITHPNFNGNTLDNDIMLIKLSSPATLNSRVATVSLPRSCAAAGTECLISGWGNTKSSGSSYPSLLQCLKAPVLSDSSCKSSYPGQITGNMICVGFLEGGKDSCQGDSGGPVVCNGQLQGIVSWGYGCAQKNKPGVYTKVCNYVNWIQQTIAAN |  |  | neither the inactivated enzymes, individually or as a mixture, nor the protein had an effect on ACE |  |
| Alcalase: protease from Bacillus licheniformis, heat-inactivated hydrolysis enzyme (protein, UniProt P00780 106-379, looked up) Subtilisin Carlsberg: AQTVPYGIPLIKADKVQAQGFKGANVKVAVLDTGIQASHPDLNVVGGASFVAGEAYNTDGNGHGTHVAGTVAALDNTTGVLGVAPSVSLYAVKVLNSSGSGSYSGIVSGIEWATTNGMDVINMSLGGASGSTAMKQAVDNAYAKGVVVVAAAGNSGSSGNTNTIGYPAKYDSVIAVGAVDSNSNRASFSSVGAELEVMAPGAGVYSTYPTNTYATLNGTSMASPHVAGAAALILSKHPNLSASQVRNRLSSTATYLGSSFYYGKGLINVEAAAQ |  |  | neither the inactivated enzymes, individually or as a mixture, nor the protein had an effect on ACE |  |
